Source: patent US12679878B2, “CRF2 receptor agonists and their use in therapy” (SANOFI, priority 2020, dated 2026)
Like-named read-outs stand apart in the source and are kept apart here. Starred links: 1 amine or outer side, 2 acyl side, 3 side chain; linkers in the order of their positions; H or OH if unused. Non-standard residues stand in square brackets, D forms with d. Residues, ends and D or L forms follow the SMILES beside them. Groups on a side chain read outwards from the residue. *: point of attachment. C18 diacid = O=C(O)CCCCCCCCCCCCCCCCC(=O)*; γGlu = O=C(O)[C@H](CCC(=O)[*:2])N[*:1]; AEEA = NCCOCCOCC(=O)O; Aib = CC(C)(N)C(=O)O

Target: T1, human CRF2α receptor (Homo sapiens, UniProt Q13324)
T1 construct: expressed in transfected cells; host or cells: TeloHEAC
T1 sequence (Q13324 1-411): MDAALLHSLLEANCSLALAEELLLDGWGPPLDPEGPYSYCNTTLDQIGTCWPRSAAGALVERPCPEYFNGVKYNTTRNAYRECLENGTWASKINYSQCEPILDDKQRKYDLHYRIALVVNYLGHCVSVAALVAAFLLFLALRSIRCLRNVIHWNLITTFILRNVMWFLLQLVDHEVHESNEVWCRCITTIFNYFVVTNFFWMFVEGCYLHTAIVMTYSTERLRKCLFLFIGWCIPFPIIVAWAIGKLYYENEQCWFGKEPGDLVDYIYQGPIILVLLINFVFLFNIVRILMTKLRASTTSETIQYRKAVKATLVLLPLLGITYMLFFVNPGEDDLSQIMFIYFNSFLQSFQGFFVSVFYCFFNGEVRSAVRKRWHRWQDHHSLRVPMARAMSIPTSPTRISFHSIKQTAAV
Assay: cAMP agonism at human CRF2 α receptor in TeloHEAC cells (Example 7)
Assay type: cell-based
Conditions: cAMP HTRF, TeloHEAC cells stably expressing human CRF2 α
Procedure, shortened: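 HTRF ratio 665/620 nm, read 1 h after lysis reagents, reports cAMP. Cells: thawed stocks, 2000/well, 30 min RT with compound in HBSS, 20 mM HEPES, 0 or 0.1% HSA, 2 mM IBMX. Activity normalised to UCN2 1000 nM = 100%; EC50 from half-maximal activation.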

[1] = 0% HSA, read-out: EC50 [nM], 0% HSA
[2] = 0.1% HSA, read-out: EC50 [nM], 0.1% HSA

Compound	EC50 [1] [nM]	EC50 [2] [nM]
CC[C@H](C)[C@H](N)C(=O)N[C@H](C(=O)N[C@@H](CC(C)C)C(=O)N[C@@H](CO)C(=O)N[C@@H](CC(C)C)C(=O)N[C@@H](CC(=O)O)C(=O)N[C@H](C(=O)N1CCC[C@H]1C(=O)N[C@H](C(=O)N[C@@H](CCCCN)C(=O)N[C@@H](CC(C)C)C(=O)N[C@@H](CCCCNC(=O)COCCOCCNC(=O)COCCOCCNC(=O)CC[C@H](NC(=O)CCCCCCCCCCCCCCCCC(=O)O)C(=O)O)C(=O)N[C@@H](CCC(N)=O)C(=O)N[C@H](C(=O)N[C@@H](CC(C)C)C(=O)N[C@@H](CC(C)C)C(=O)N[C@@H](CCCCN)C(=O)N[C@@H](CCC(N)=O)C(=O)N[C@@H](CCC(=O)O)C(=O)N[C@@H](CCCNC(=N)N)C(=O)N[C@@H](CCC(N)=O)C(=O)N[C@@H](CCCCN)C(=O)N[C@@H](CCCCN)C(=O)NC(C)(C)C(=O)N[C@@H](CCCNC(=N)N)C(=O)N[C@@H](CCC(=O)O)C(=O)N[C@@H](CCC(N)=O)C(=O)N[C@@H](C)C(=O)N[C@@H](CCC(=O)O)C(=O)N[C@H](C(=O)N[C@@H](CC(N)=O)C(=O)N[C@H](C(=O)N[C@@H](CCCNC(=N)N)C(=O)N[C@H](C(=O)N[C@@H](CC(C)C)C(=O)N[C@@H](CCC(=O)O)C(=O)N[C@@H](CCCNC(=N)N)C(=O)N[C@H](C(N)=O)C(C)C)[C@@H](C)CC)C(C)C)[C@@H](C)O)[C@@H](C)CC)[C@@H](C)O)C(C)C)C(C)C [compound 82] (H-IVLSLDVPTKLK([AEEA-AEEA-γGlu-C18 diacid])QILLKQERQKK[Aib]REQAETNVRILERV-NH2)	10.1	–
CC[C@H](C)[C@H](N)C(=O)N[C@H](C(=O)N[C@@H](CC(C)C)C(=O)N[C@@H](CO)C(=O)N[C@@H](CC(C)C)C(=O)N[C@@H](CC(=O)O)C(=O)N[C@H](C(=O)N1CCC[C@H]1C(=O)N[C@H](C(=O)N[C@@H](CCCCN)C(=O)N[C@@H](CC(C)C)C(=O)N[C@@H](CCCCNC(=O)COCCOCCNC(=O)COCCOCCNC(=O)CC[C@H](NC(=O)CCCCCCCCCCCCCCCCC(=O)O)C(=O)O)C(=O)N[C@@H](CCC(N)=O)C(=O)N[C@@H](CCCCN)C(=O)N[C@@H](CC(C)C)C(=O)N[C@@H](CC(C)C)C(=O)N[C@@H](CCC(=O)O)C(=O)N[C@@H](CCC(N)=O)C(=O)N[C@@H](CCC(=O)O)C(=O)N[C@@H](CCCCN)C(=O)N[C@@H](CCC(N)=O)C(=O)N[C@@H](CCCCN)C(=O)N[C@@H](CCCCN)C(=O)N[C@@H](CCC(N)=O)C(=O)N[C@@H](CCCNC(=N)N)C(=O)N[C@@H](CCC(=O)O)C(=O)N[C@@H](CCC(N)=O)C(=O)N[C@@H](C)C(=O)N[C@@H](CCC(=O)O)C(=O)N[C@H](C(=O)N[C@@H](CC(N)=O)C(=O)N[C@@H](CCCCN)C(=O)N[C@@H](CCC(N)=O)C(=O)N[C@H](C(=O)N[C@@H](CC(C)C)C(=O)N[C@@H](C)C(=O)N[C@@H](CCC(N)=O)C(=O)N[C@H](C(N)=O)C(C)C)[C@@H](C)CC)[C@@H](C)O)[C@@H](C)CC)C(C)C)C(C)C [compound 84] (H-IVLSLDVPIKLK([AEEA-AEEA-γGlu-C18 diacid])QKLLEQEKQKKQREQAETNKQILAQV-NH2; N-terminus assumed)	1.85	61.7
CC[C@H](C)[C@H](N)C(=O)N[C@H](C(=O)N[C@@H](CC(C)C)C(=O)N[C@@H](CO)C(=O)N[C@@H](CC(C)C)C(=O)N[C@@H](CC(=O)O)C(=O)N[C@H](C(=O)N1CCC[C@H]1C(=O)N[C@H](C(=O)N[C@@H](CCCCN)C(=O)N[C@@H](CC(C)C)C(=O)N[C@@H](CCCCNC(=O)COCCOCCNC(=O)COCCOCCNC(=O)CC[C@H](NC(=O)CCCCCCCCCCCCCCCCC(=O)O)C(=O)O)C(=O)N[C@@H](CCC(N)=O)C(=O)N[C@H](C(=O)N[C@@H](CC(C)C)C(=O)N[C@@H](CC(C)C)C(=O)N[C@@H](CCCCN)C(=O)N[C@@H](CCC(N)=O)C(=O)N[C@@H](CCC(=O)O)C(=O)N[C@@H](CCCNC(=N)N)C(=O)N[C@@H](CCC(N)=O)C(=O)N[C@@H](CCCCN)C(=O)N[C@@H](CCCCN)C(=O)N[C@@H](CCC(N)=O)C(=O)N[C@@H](CCCNC(=N)N)C(=O)N[C@@H](CCC(=O)O)C(=O)N[C@@H](CCCCN)C(=O)N[C@@H](C)C(=O)N[C@@H](CCCCN)C(=O)N[C@H](C(=O)N[C@@H](CC(N)=O)C(=O)N[C@H](C(=O)N[C@@H](CCC(N)=O)C(=O)N[C@H](C(=O)N[C@@H](CC(C)C)C(=O)N[C@@H](C)C(=O)N[C@@H](CCC(N)=O)C(=O)N[C@H](C(N)=O)C(C)C)[C@@H](C)CC)C(C)C)[C@@H](C)O)[C@@H](C)CC)[C@@H](C)CC)C(C)C)C(C)C [compound 90] (H-IVLSLDVPIKLK([AEEA-AEEA-γGlu-C18 diacid])QILLKQERQKKQREKAKTNVQILAQV-NH2; N-terminus assumed)	3.91	92.6
CC[C@H](C)[C@H](N)C(=O)N[C@H](C(=O)N[C@@H](CC(C)C)C(=O)N[C@@H](CO)C(=O)N[C@@H](CC(C)C)C(=O)N[C@@H](CC(=O)O)C(=O)N[C@H](C(=O)N1CCC[C@H]1C(=O)N[C@H](C(=O)N[C@@H](CCCCN)C(=O)N[C@@H](CC(C)C)C(=O)N[C@@H](CCCCNC(=O)COCCOCCNC(=O)COCCOCCNC(=O)CC[C@H](NC(=O)CCCCCCCCCCCCCCCCC(=O)O)C(=O)O)C(=O)N[C@@H](CCC(N)=O)C(=O)N[C@@H](CCCCN)C(=O)N[C@@H](CC(C)C)C(=O)N[C@@H](CC(C)C)C(=O)N[C@@H](CCCCN)C(=O)N[C@@H](CCC(N)=O)C(=O)N[C@@H](CCC(=O)O)C(=O)N[C@@H](CCCNC(=N)N)C(=O)N[C@@H](CCC(N)=O)C(=O)N[C@@H](CCCCN)C(=O)N[C@@H](CCCCN)C(=O)N[C@@H](CCC(N)=O)C(=O)N[C@@H](CCCNC(=N)N)C(=O)N[C@@H](CCC(=O)O)C(=O)N[C@@H](CCCCN)C(=O)N[C@@H](C)C(=O)N[C@@H](CCCCN)C(=O)N[C@H](C(=O)N[C@@H](CC(N)=O)C(=O)NC(C)(C)C(=O)N[C@@H](CCC(N)=O)C(=O)N[C@H](C(=O)N[C@@H](CC(C)C)C(=O)N[C@@H](C)C(=O)N[C@@H](CCC(N)=O)C(=O)N[C@H](C(N)=O)C(C)C)[C@@H](C)CC)[C@@H](C)O)[C@@H](C)CC)C(C)C)C(C)C [compound 91] (H-IVLSLDVPIKLK([AEEA-AEEA-γGlu-C18 diacid])QKLLKQERQKKQREKAKTN[Aib]QILAQV-NH2)	14.3	–
CC[C@H](C)[C@H](N)C(=O)N[C@H](C(=O)N[C@@H](CC(C)C)C(=O)N[C@@H](CO)C(=O)N[C@@H](CC(C)C)C(=O)N[C@@H](CC(=O)O)C(=O)N[C@H](C(=O)N1CCC[C@H]1C(=O)N[C@H](C(=O)N[C@@H](CCCCN)C(=O)N[C@@H](CC(C)C)C(=O)N[C@@H](CCCCNC(=O)COCCOCCNC(=O)COCCOCCNC(=O)CC[C@H](NC(=O)CCCCCCCCCCCCCCCCC(=O)O)C(=O)O)C(=O)N[C@@H](CCC(N)=O)C(=O)N[C@@H](CCCCN)C(=O)N[C@@H](CC(C)C)C(=O)N[C@@H](CC(C)C)C(=O)N[C@@H](CCC(=O)O)C(=O)N[C@@H](CCC(N)=O)C(=O)N[C@@H](CCC(=O)O)C(=O)N[C@@H](CCCNC(=N)N)C(=O)N[C@@H](CCC(N)=O)C(=O)N[C@@H](CCCCN)C(=O)N[C@@H](CCCCN)C(=O)N[C@@H](CCC(N)=O)C(=O)N[C@@H](CCCNC(=N)N)C(=O)N[C@@H](CCC(=O)O)C(=O)N[C@@H](CCC(N)=O)C(=O)N[C@@H](C)C(=O)N[C@@H](CCC(=O)O)C(=O)N[C@H](C(=O)N[C@@H](CC(N)=O)C(=O)NC(C)(C)C(=O)N[C@@H](CCC(N)=O)C(=O)N[C@H](C(=O)N[C@@H](CC(C)C)C(=O)N[C@@H](C)C(=O)N[C@@H](CCC(N)=O)C(=O)N[C@H](C(N)=O)C(C)C)[C@@H](C)CC)[C@@H](C)O)[C@@H](C)CC)C(C)C)C(C)C [compound 92] (H-IVLSLDVPIKLK([AEEA-AEEA-γGlu-C18 diacid])QKLLEQERQKKQREQAETN[Aib]QILAQV-NH2; N-terminus assumed)	9.17	–
